ChEMBL document CHEMBL6096675 (J Med Chem, 2025)
pIC50: −log10 of the molar value. The source made the active and inactive calls. No cut-off for these calls is given here.

Assays:
[1] = Antiproliferative activity against human SMARCA4-deficient NCI-H1944 cells assessed as inhibition of cell growth measured after 7 days by WST-8 assay; format: functional; conditions: NCI-H1944, 168 h, time 7 day
[2] = Antiproliferative activity against human SMARCA4-deficient NCI-H1693 cells assessed as maximal inhibition of cell growth measured after 7 days by WST-8 assay relative to control; format: functional; conditions: time 7 day
[3] = tested on: SK-MEL-28; assay: Antiproliferative activity against human SMARCA4-wild type SK-MEL-28 cells assessed as inhibition of cell growth measured after 7 days by WST-8 assay; format: functional; conditions: SK-MEL-28, 168 h, time 7 day
[4] = Antiproliferative activity against human SMARCA4-deficient NCI-H1693 cells assessed as inhibition of cell growth measured after 7 days by WST-8 assay; format: functional; conditions: NCI-H1693, 168 h, time 7 day
[5] = Antiproliferative activity against human SMARCA4-deficient NCI-H838 cells assessed as maximal inhibition of cell growth measured after 7 days by WST-8 assay relative to control; format: functional; conditions: time 7 day
[6] = Antiproliferative activity against human SMARCA4-deficient NCI-H838 cells assessed as inhibition of cell growth measured after 7 days by WST-8 assay; format: functional; conditions: NCI-H838, 168 h, time 7 day
[7] = Antiproliferative activity against human […] NCI-H1975 cells assessed as inhibition of cell growth measured after 7 days by WST-8 assay; format: functional; conditions: NCI-H1975, 168 h, time 7 day
[8] = Antiproliferative activity against human SMARCA4-deficient NCI-H1568 cells assessed as maximal inhibition of cell growth measured after 7 days by WST-8 assay relative to control; format: functional; conditions: time 7 day
[9] = tested on: SK-MEL-5; assay: Antiproliferative activity against human SMARCA4-deficient SK-MEL-5 cells assessed as inhibition of cell growth measured after 7 days by WST-8 assay; format: functional; conditions: SK-MEL-5, 168 h, time 7 day
[10] = Antiproliferative activity against human SMARCA4-deficient NCI-H1944 cells assessed as maximal inhibition of cell growth measured after 7 days by WST-8 assay relative to control; format: functional; conditions: time 7 day
[11] = Antiproliferative activity against human SMARCA4-deficient NCI-H1568 cells assessed as inhibition of cell growth measured after 7 days by WST-8 assay; format: functional; conditions: NCI-H1568, 168 h, time 7 day
[12] = tested on: SK-MEL-28; assay: Antiproliferative activity against human SMARCA4-wild type SK-MEL-28 cells assessed as maximal inhibition of cell growth measured after 7 days by WST-8 assay relative to control; format: functional; conditions: time 7 day
[13] = Antiproliferative activity against human […] NCI-H1975 cells assessed as maximal inhibition of cell growth measured after 7 days by WST-8 assay relative to control; format: functional; conditions: time 7 day
[14] = tested on: NCI-H1792; assay: Antiproliferative activity against human SMARCA4-wild type NCI-H1792 cells assessed as maximal inhibition of cell growth measured after 7 days by WST-8 assay relative to control; format: functional; conditions: time 7 day
[15] = tested on: NCI-H1792; assay: Antiproliferative activity against human SMARCA4-wild type NCI-H1792 cells assessed as inhibition of cell growth measured after 7 days by WST-8 assay; format: functional; conditions: NCI-H1792, 168 h, time 7 day
[16] = tested on: NCI-H838; assay: In vivo anti-tumor activity against SMARCA4-deficient human NCI-H838 cells xenografted in SCID mouse assessed as assessed as inhibition of tumor growth at 10 to 30 mg/kg, iv weekly once; format: functional, organism-based; conditions: dose 10-30 mg/kg
[17] = target: T1, von Hippel-Lindau disease tumor suppressor/SWI/SNF-related matrix-associated actin-dependent regulator of chromatin subfamily A member 4 (Homo sapiens, UniProt P51532+P40337); assay: PROTAC activity at SMARCA4/VHL1 in human HeLa cells assessed as protein degradation after 2 hrs by Nano-Glo HiBiT lytic detection assay; format: cell-based
[18] = target: von Hippel-Lindau disease tumor suppressor (Homo sapiens, UniProt P40337); assay: Inhibition of VHL (unknown origin)
[19] = target: von Hippel-Lindau disease tumor suppressor/SWI/SNF-related matrix-associated actin-dependent regulator of chromatin subfamily A member 2 (Homo sapiens, UniProt P51531+P40337); assay: PROTAC activity at SMARCA2/VHL1 in human HeLa cells assessed as protein degradation by Nano-Glo HiBiT lytic detection assay; format: cell-based
[20] = Plasma concentration in SCID mouse xenografted with human NCI-H838 cells at 10 mg/kg, iv measured after 168 hrs by LC-MS/MS analysis; format: ADME, organism-based; conditions: SCID, plasma
[21] = Drug uptake in tumor of human NCI-H838 cells xenografted SCID mouse model at 10 mg/kg, iv measured after 48 hrs by LC-MS/MS analysis; format: ADME, organism-based, Neoplasm; conditions: read-out: Drug uptake
[22] = Drug uptake in tumor of human NCI-H838 cells xenografted SCID mouse model at 10 mg/kg, iv measured after 168 hrs by LC-MS/MS analysis; format: ADME, organism-based, Neoplasm; conditions: read-out: Drug uptake
[23] = target: T1, von Hippel-Lindau disease tumor suppressor/SWI/SNF-related matrix-associated actin-dependent regulator of chromatin subfamily A member 4; assay: PROTAC activity at SMARCA4/VHL1 in human HeLa cells assessed as protein degradation by Nano-Glo HiBiT lytic detection assay; format: cell-based
[24] = Plasma concentration in SCID mouse xenografted with human NCI-H838 cells at 10 mg/kg, iv measured after 48 hrs by LC-MS/MS analysis; format: ADME, organism-based

T1 sequence (P51532 whole entry): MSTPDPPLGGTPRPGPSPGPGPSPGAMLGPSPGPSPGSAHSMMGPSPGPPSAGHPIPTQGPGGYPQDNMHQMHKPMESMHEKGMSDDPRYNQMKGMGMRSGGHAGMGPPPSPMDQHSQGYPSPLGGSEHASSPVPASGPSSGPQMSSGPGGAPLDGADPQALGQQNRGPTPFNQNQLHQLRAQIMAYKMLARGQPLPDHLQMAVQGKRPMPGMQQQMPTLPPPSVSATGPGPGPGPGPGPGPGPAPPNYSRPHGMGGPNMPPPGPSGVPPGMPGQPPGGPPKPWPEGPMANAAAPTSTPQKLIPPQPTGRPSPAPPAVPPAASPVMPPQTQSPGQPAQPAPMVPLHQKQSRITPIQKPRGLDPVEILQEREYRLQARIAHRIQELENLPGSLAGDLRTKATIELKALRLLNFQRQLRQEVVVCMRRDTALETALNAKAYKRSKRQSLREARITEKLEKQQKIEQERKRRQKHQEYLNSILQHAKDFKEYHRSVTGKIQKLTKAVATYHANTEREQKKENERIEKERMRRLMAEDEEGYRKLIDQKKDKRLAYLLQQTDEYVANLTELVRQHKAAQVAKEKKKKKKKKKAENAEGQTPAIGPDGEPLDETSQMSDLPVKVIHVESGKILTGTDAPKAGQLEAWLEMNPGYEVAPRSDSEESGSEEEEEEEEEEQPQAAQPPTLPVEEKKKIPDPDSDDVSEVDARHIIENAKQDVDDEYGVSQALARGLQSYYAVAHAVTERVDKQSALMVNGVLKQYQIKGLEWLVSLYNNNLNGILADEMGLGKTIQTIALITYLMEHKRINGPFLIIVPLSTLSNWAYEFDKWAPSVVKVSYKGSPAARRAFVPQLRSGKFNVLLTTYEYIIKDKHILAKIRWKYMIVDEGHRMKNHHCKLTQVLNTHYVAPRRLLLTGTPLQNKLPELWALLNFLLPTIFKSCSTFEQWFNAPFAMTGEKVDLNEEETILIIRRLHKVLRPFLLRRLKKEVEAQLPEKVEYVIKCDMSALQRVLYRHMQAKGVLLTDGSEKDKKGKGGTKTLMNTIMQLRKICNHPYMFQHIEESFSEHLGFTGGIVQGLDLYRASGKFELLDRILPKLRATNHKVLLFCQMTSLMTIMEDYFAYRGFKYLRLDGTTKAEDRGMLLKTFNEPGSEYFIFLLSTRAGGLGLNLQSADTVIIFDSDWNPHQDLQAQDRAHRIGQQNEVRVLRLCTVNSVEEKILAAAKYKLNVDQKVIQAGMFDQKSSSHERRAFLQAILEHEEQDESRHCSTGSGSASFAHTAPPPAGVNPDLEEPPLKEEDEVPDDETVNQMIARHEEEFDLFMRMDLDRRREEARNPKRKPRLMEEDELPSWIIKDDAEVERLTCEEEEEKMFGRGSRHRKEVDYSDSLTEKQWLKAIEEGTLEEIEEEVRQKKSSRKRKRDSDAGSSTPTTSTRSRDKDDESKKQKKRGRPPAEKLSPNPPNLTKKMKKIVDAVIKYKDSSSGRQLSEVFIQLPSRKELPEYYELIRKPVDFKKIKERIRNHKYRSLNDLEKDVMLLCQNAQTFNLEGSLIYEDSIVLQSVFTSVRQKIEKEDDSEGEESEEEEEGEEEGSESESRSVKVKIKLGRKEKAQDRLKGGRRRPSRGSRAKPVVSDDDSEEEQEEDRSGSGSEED
T1 sequence (P40337 whole entry): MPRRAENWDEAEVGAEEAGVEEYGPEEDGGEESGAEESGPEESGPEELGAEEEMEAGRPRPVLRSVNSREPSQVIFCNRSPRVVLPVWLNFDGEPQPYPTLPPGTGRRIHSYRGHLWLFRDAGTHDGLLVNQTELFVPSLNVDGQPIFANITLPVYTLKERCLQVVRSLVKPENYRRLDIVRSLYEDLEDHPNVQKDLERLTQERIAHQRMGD
von Hippel-Lindau disease tumor suppressor, sequence (P40337 whole entry): as above
von Hippel-Lindau disease tumor suppressor/SWI/SNF-related matrix-associated actin-dependent regulator of chromatin subfamily A member 2, sequence (P51531 whole entry): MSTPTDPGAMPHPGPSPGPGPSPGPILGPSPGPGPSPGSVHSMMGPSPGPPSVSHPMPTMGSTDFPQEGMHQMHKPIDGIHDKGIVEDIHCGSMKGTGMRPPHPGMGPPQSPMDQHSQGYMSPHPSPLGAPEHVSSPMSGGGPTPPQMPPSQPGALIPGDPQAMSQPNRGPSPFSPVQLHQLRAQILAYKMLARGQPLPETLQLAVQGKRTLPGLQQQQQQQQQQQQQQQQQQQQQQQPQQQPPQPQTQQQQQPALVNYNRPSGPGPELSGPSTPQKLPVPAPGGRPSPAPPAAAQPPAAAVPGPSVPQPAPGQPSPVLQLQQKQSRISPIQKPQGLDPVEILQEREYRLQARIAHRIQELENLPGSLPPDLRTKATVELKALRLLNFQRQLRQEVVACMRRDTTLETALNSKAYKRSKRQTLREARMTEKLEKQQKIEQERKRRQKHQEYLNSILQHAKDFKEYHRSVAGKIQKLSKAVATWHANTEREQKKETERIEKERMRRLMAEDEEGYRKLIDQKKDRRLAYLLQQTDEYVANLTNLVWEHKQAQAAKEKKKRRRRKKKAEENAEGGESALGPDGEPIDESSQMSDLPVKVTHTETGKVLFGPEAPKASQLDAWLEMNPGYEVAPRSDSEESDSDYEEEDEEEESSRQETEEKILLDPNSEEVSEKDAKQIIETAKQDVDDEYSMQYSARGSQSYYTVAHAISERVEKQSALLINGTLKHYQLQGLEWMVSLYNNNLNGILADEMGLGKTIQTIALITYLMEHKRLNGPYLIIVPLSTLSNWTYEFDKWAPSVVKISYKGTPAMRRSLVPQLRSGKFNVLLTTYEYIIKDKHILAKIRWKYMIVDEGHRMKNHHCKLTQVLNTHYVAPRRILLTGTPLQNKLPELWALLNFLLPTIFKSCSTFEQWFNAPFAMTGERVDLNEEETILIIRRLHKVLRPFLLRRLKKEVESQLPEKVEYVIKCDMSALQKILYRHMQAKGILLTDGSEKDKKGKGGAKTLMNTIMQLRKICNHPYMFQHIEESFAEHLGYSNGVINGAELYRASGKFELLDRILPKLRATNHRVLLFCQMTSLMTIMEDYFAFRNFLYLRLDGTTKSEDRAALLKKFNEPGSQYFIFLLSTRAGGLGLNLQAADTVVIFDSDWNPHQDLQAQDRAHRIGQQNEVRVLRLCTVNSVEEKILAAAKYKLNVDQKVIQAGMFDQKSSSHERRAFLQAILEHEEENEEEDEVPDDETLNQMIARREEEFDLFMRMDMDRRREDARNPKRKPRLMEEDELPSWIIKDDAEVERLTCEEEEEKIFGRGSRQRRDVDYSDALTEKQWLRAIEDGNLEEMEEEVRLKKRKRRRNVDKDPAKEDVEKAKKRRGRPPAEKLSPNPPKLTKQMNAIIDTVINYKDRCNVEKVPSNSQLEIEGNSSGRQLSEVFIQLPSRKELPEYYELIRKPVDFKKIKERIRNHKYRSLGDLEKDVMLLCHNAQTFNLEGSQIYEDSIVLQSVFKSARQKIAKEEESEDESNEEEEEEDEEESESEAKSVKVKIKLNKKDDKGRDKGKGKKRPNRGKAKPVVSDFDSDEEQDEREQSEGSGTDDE
von Hippel-Lindau disease tumor suppressor/SWI/SNF-related matrix-associated actin-dependent regulator of chromatin subfamily A member 2, sequence (P40337 whole entry): as the sequence (P40337 whole entry) above

Cc1ncsc1-c1ccc([C@H](C)NC(=O)[C@@H]2C[C@@H](O)CN2C(=O)[C@@H](NC(=O)[C@H]2CC[C@H](CN3CC4(CCC(n5cc(-c6cc(-c7ccccc7O)nnc6N)cn5)CC4)C3)CC2)C(C)(C)C)cc1
GI50 [1]: 123 nM
Imax [2]: 81%
GI50 [3]: > 10000 nM
GI50 [4]: 43 nM
Imax [5]: 77%
GI50 [6]: 152 nM
GI50 [7]: > 10000 nM
Imax [8]: 87%
GI50 [9]: 16 nM
Imax [10]: 70%
GI50 [11]: 12 nM
Imax [12]: 15%
Imax [13]: 40%
Imax [14]: 25%
GI50 [15]: > 10000 nM
Activity [16]: Active

Cc1ncsc1-c1ccc([C@H](CN2CCOCC2)NC(=O)[C@@H]2C[C@H](O)CN2C(=O)[C@@H](n2cc([C@H]3CC[C@H](CN4CCC(c5ccc6c(c5)C5(CCCCC5)c5nc(=O)c7c(Cl)cccc7n5-6)CC4)CC3)nn2)C(C)(C)C)cc1
DC50 [17]: Not_active

Cc1cn([C@H](C(=O)N2C[C@H](O)C[C@H]2C(=O)N[C@@H](C)c2ccc(-c3scnc3C)cc2)C(C)(C)C)nn1
pIC50 [18]: 7.79

Cc1ncsc1-c1ccc([C@H](CN2CCOCC2)NC(=O)[C@@H]2C[C@@H](O)CN2C(=O)[C@H](C2CCOCC2)n2cc([C@H]3CC[C@H](CN4CCC(c5ccc6c(c5)-n5c(nc(=O)c7c(Cl)cccc75)C65CCCCC5)CC4)CC3)nn2)cc1
DC50 [19]: 0.1 nM
concentration at 168 h [20]: 2.6 ng/mL
concentration at 48 h [21]: 491 ng/mL
concentration at 168 h [22]: 65 ng/mL
DC50 [23]: > 1000 nM
concentration at 48 h [24]: 30 ng/mL

Cc1ncsc1-c1ccc([C@H](C)NC(=O)[C@@H]2C[C@@H](O)CN2C(=O)[C@@H](n2cc(C3CC3)nn2)C(C)(C)C)cc1
pIC50 [18]: 7.72
